Assay results published in patent publication US20170334899A1, “AMINO-SUBSTITUTED ISOTHIAZOLES” (Bayer Pharma Aktiengesellschaft, priority 2014, published 2017).

System: human cervical tumor cell line HeLa (ATCC CCL-2)
Assay: SAC-Formation - Nocodazole-Induced Assay
Assay type: cell-based
Conditions: Homo sapiens, HeLa, 24 h, HeLa cells, nocodazole 0.1 μg/ml together with test compound, decrease of mitotic cells (phospho-histone H3 Ser10)
In short: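 HeLa cells, plated overnight, were treated 24 h at 37 °C with nocodazole (0.1 μg/ml final) plus test compound (0.005–20 μM, 0.5% DMSO) added at the same time. After fixation, anti-phospho-histone H3 Ser10 and Hoechst staining gave the mitotic cell fraction by imaging. Values came from four-parameter Hill fits.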

Structure (SMILES) | IC50
Cc1nsc(Nc2cnc(C(F)(F)F)cn2)c1C(=O)Nc1ccc(OCC2CCN(C(=O)OC(C)(C)C)CC2)nc1 [Example 227, tert-butyl 4-{[(5-{[(3-methyl-5-{[5-(trifluoromethyl)pyrazin-2-yl]amino}-1,2-thiazol-4-yl)carbonyl]amino}pyridin-2-yl)oxy]methyl}piperidine-1-carboxylate] | 58 nM
Cc1nsc(Nc2cnc(C(F)(F)F)cn2)c1C(=O)Nc1ccc(OCCN)nc1 [Example 197, N-[6-(2-aminoethoxy)pyridin-3-yl]-3-methyl-5-{[5-(trifluoromethyl)pyrazin-2-yl]amino}-1,2-thiazole-4-carboxamide] | 1000 nM
Cc1nsc(Nc2cnc3ccccc3n2)c1C(=O)Nc1ccc(OCCC(=O)OC(C)(C)C)nc1 [Example 198, tert-butyl 3-{[5-({[3-methyl-5-(quinoxalin-2-ylamino)-1,2-thiazol-4-yl]carbonyl}amino)pyridin-2-yl]oxy}propanoate] | 1000 nM
Cc1nsc(Nc2cncc(C(F)(F)F)n2)c1C(=O)Nc1ccc(OCC2CCN(C(=O)OC(C)(C)C)CC2)nc1 [Example 226, tert-butyl 4-{[(5-{[(3-methyl-5-{[6-(trifluoromethyl)pyrazin-2-yl]amino}-1,2-thiazol-4-yl)carbonyl]amino}pyridin-2-yl)oxy]methyl}piperidine-1-carboxylate] | 120 nM
Cc1nsc(Nc2cc(C#N)ccn2)c1C(=O)Nc1cccc(NC(=O)C(C)(C)C)c1 [Example 183, 5-[(4-cyanopyridin-2-yl)amino]-N-{3-[(2,2-dimethylpropanoyl)amino]phenyl}-3-methyl-1,2-thiazole-4-carboxamide] | 1500 nM
Cc1cc(C)n(-c2ccccc2NC(=O)c2c(C)nsc2Nc2cnc3ccccc3n2)n1 [Example 243, N-[2-(3,5-dimethyl-1H-pyrazol-1-yl)phenyl]-3-methyl-5-(quinoxalin-2-ylamino)-1,2-thiazole-4-carboxamide] | 1800 nM
CC(=O)Nc1cc(NC(=O)c2c(C)nsc2Nc2cnccn2)ccc1F [Example 205, N-(3-acetamido-4-fluorophenyl)-3-methyl-5-(pyrazin-2-ylamino)-1,2-thiazole-4-carboxamide] | 6000 nM
Cc1nsc(Nc2cnc3ccccc3n2)c1C(=O)Nc1ccc(C(=O)O)cc1 [Example 187, 4-({[3-methyl-5-(quinoxalin-2-ylamino)-1,2-thiazol-4-yl]carbonyl}amino)benzoic acid] | 2200 nM
Cc1nsc(Nc2cc(C#N)ccn2)c1C(=O)Nc1ccc(NC2CCCNC2)nc1 (centres unmarked) [Example 242, 5-[(4-cyanopyridin-2-yl)amino]-3-methyl-N-[6-(piperidin-3-ylamino)pyridin-3-yl]-1,2-thiazole-4-carboxamide] | 2600 nM
Cc1nsc(Nc2cc(C#N)ccn2)c1C(=O)Nc1ccc(OCCC(=O)OC(C)(C)C)nc1 [Example 200, tert-butyl 3-({5-[({5-[(4-cyanopyridin-2-yl)amino]-3-methyl-1,2-thiazol-4-yl}carbonyl)amino]pyridin-2-yl}oxy)propanoate] | 460 nM
Cc1nsc(Nc2cnc3ccccc3n2)c1C(=O)Nc1ccc(NC2CCN(C(=O)OC(C)(C)C)CC2)nc1 [Example 234, tert-butyl 4-{[5-({[3-methyl-5-(quinoxalin-2-ylamino)-1,2-thiazol-4-yl]carbonyl}amino)pyridin-2-yl]amino}piperidine-1-carboxylate] | 1000 nM
Cc1nsc(Nc2cnc(C(F)(F)F)cn2)c1C(=O)Nc1ccc(C(=O)NCCN2CCCC(F)C2)cc1 (centres unmarked) [Example 213, N-(4-{[2-(3-fluoropiperidin-1-yl)ethyl]carbamoyl}phenyl)-3-methyl-5-{[5-(trifluoromethyl)pyrazin-2-yl]amino}-1,2-thiazole-4-carboxamide] | 2700 nM
Cc1nsc(Nc2cc(C#N)ccn2)c1C(=O)Nc1ccc(NC(=O)OC(C)(C)C)cc1 [Example 177, tert-butyl {4-[({5-[(4-cyanopyridin-2-yl)amino]-3-methyl-1,2-thiazol-4-yl}carbonyl)amino]phenyl}carbamate] | 3900 nM
Cc1nsc(Nc2cc(C#N)ccn2)c1C(=O)Nc1ccc(C(=O)OC(C)(C)C)cc1 [Example 182, tert-butyl 4-[({5-[(4-cyanopyridin-2-yl)amino]-3-methyl-1,2-thiazol-4-yl}carbonyl)amino]benzoate] | 25 nM
Cc1nsc(Nc2cnc3ccccc3n2)c1C(=O)Nc1ccc(F)c(C(N)=O)c1 [Example 202, N-(3-carbamoyl-4-fluorophenyl)-3-methyl-5-(quinoxalin-2-ylamino)-1,2-thiazole-4-carboxamide] | 220 nM
CCN(CC)CCNC(=O)c1cccc(NC(=O)c2c(C)nsc2Nc2cnccn2)c1 [Example 247, N-(3-{[2-(diethylamino)ethyl]carbamoyl}phenyl)-3-methyl-5-(pyrazin-2-ylamino)-1,2-thiazole-4-carboxamide] | 1200 nM
Cc1nsc(Nc2ccc(C#N)cn2)c1C(=O)Nc1cccc(NC(=O)OC(C)(C)C)c1 [Example 179, tert-butyl {3-[({5-[(5-cyanopyridin-2-yl)amino]-3-methyl-1,2-thiazol-4-yl}carbonyl)amino]phenyl}carbamate] | 320 nM
Cc1nsc(Nc2cnc3ccccc3n2)c1C(=O)Nc1ccc(C(=O)OC(C)(C)C)cc1 [Example 181, tert-butyl 4-({[3-methyl-5-(quinoxalin-2-ylamino)-1,2-thiazol-4-yl]carbonyl}amino)benzoate] | 260 nM
Cc1nsc(Nc2cnc3ccccc3n2)c1C(=O)Nc1ccc(NCCNC(=O)OC(C)(C)C)nc1 [Example 244, tert-butyl (2-{[5-({[3-methyl-5-(quinoxalin-2-ylamino)-1,2-thiazol-4-yl]carbonyl}amino)pyridin-2-yl]amino}ethyl)carbamate] | 3700 nM

Next, values leading:

IC50 | Structure (SMILES)
660 nM | Cc1nsc(Nc2cnc(C(F)(F)F)cn2)c1C(=O)Nc1cccc(S(C)(=O)=O)c1 [Example 195, 3-methyl-N-[3-(methylsulfonyl)phenyl]-5-{[5-(trifluoromethyl)pyrazin-2-yl]amino}-1,2-thiazole-4-carboxamide]
75 nM | Cc1nsc(Nc2cncc(C(F)(F)F)n2)c1C(=O)Nc1ccc(OCCCNC(=O)OC(C)(C)C)nc1 [Example 190, tert-butyl {3-[(5-{[(3-methyl-5-{[6-(trifluoromethyl)pyrazin-2-yl]amino}-1,2-thiazoL-4-yl)carbonyl]amino}pyridin-2-yl)oxy]propyl}carbamate]
2000 nM | CNS(=O)(=O)c1ccc(NC(=O)c2c(C)nsc2Nc2cnc(C(F)(F)F)cn2)cc1 [Example 212, 3-methyl-N-[4-(methylsulfamoyl)phenyl]-5-{[5-(trifluoromethyl)pyrazin-2-yl]amino}-1,2-thiazole-4-carboxamide]
180 nM | Cc1nsc(Nc2cncc(C(F)(F)F)n2)c1C(=O)Nc1ccc(OC2CCN(CCF)CC2)c(F)c1 [Example 223, N-(3-fluoro-4-{[1-(2-fluoroethyl)piperidin-4-yl]oxy}phenyl)-3-methyl-5-{[6-(trifluoromethyl)pyrazin-2-yl]amino}-1,2-thiazole-4-carboxamide]
380 nM | Cc1nsc(Nc2cncc(C(F)(F)F)n2)c1C(=O)Nc1ccc(OC2CCN(C(C)C)CC2)nc1 [Example 218, N-{6-[(1-isopropylpiperidin-4-yl)oxy]pyridin-3-yl}-3-methyl-5-{[6-(trifluoromethyl)pyrazin-2-yl]amino}-1,2-thiazole-4-carboxamide]
96 nM | CNS(=O)(=O)c1ccc(NC(=O)c2c(C)nsc2Nc2cncc(C(F)(F)F)n2)cc1 [Example 211, 3-methyl-N-[4-(methylsulfamoyl)phenyl]-5-{[6-(trifluoromethyl)pyrazin-2-yl]amino}-1,2-thiazole-4-carboxamide]
110 nM | Cc1nsc(Nc2cncc(C(F)(F)F)n2)c1C(=O)Nc1ccc(OC2CCN(CC(F)F)CC2)c(F)c1 [Example 224, N-(4-{[1-(2,2-difluoroethyl)piperidin-4-yl]oxy}-3-fluorophenyl)-3-methyl-5-{[6-(trifluoromethyl)pyrazin-2-yl]amino}-1,2-thiazole-4-carboxamide]
110 nM | CC(=O)Nc1cc(NC(=O)c2c(C)nsc2Nc2cnc(C(F)(F)F)cn2)ccc1F [Example 206, N-(3-acetamido-4-fluorophenyl)-3-methyl-5-{[5-(trifluoromethyl)pyrazin-2-yl]amino}-1,2-thiazole-4-carboxamide]
1300 nM | Cc1nsc(Nc2cncc(C(F)(F)F)n2)c1C(=O)Nc1ccc(OCCN)nc1 [Example 196, N-[6-(2-aminoethoxy)pyridin-3-yl]-3-methyl-5-{[6-(trifluoromethyl)pyrazin-2-yl]amino}-1,2-thiazole-4-carboxamide]
310 nM | Cc1nsc(Nc2cncc(C(F)(F)F)n2)c1C(=O)Nc1ccc(C(=O)NC2CCN(CC(F)F)CC2)cc1 [Example 225, N-N-(4-{[1-(2,2-difluoroethyl)piperidin-4-yl]carbamoyl}phenyl)-3-methyl-5-{[6-(trifluoromethyl)pyrazin-2-yl]amino}-1,2-thiazole-4-carboxamide]
230 nM | Cc1nsc(Nc2cncc(C(F)(F)F)n2)c1C(=O)Nc1cccc(S(C)(=O)=O)c1 [Example 194, 3-methyl-N-[3-(methylsulfonyl)phenyl]-5-{[6-(trifluoromethyl)pyrazin-2-yl]amino}-1,2-thiazole-4-carboxamide]
330 nM | Cc1nsc(Nc2ccc(C#N)cn2)c1C(=O)Nc1ccc(S(C)(=O)=O)cc1 [Example 246, 5-[(5-cyanopyridin-2-yl)amino]-3-methyl-N-[4-(methylsulfonyl)phenyl]-1,2-thiazole-4-carboxamide]
59 nM | Cc1nsc(Nc2cncc(C(F)(F)F)n2)c1C(=O)Nc1ccc(OCCNC(=O)OC(C)(C)C)nc1 [Example 191, tert-butyl {2-[(5-{[(3-methyl-5-{[6-(trifluoromethyl)pyrazin-2-yl]amino}-1,2-thiazol-4-yl)carbonyl]amino}pyridin-2-yl)oxy]ethyl}carbamate]
